From article PMC4198181, “Gold(I) Complexes of 9-Deazahypoxanthine as Selective Antitumor and Anti-Inflammatory Agents” (PLoS ONE, 2014)

What was measured:
[1] = system: TNF-α mRNA; assay: TNF-α gene expression by RT-qPCR in LPS-stimulated THP-1 macrophages; type: cell-based, human; details: 300 nM, 2 h after LPS, normalised to β-actin
Method: For the determination of biological activity, we used the human monocytic leukaemia cell line THP-1 (ECACC, Salisbury, UK). The cells were cultivated at 37°C in the RPMI 1640 medium supplemented with 2 mM L-glutamine, 10% FBS, 100 U/mL of penicillin and 100 µg/mL of streptomycin in a humidified atmosphere containing 5% CO2. Stabilized cells (3rd–15th passage) were split into microtitration plates to get a concentration of 500 000 cells/mL and the differentiation to macrophages was induced by phorbol myristate acetate (PMA) dissolved in dimethyl sulfoxide (DMSO) at the final concentration of 50 ng/ml, and the cells were incubated for 24 h. In comparison with monocytes, differentiated macrophages tend to adhere to the bottoms of the cultivation plates. For next 24 h the cells were incubated with a fresh complete RPMI medium, i.e. containing antibiotics and FBS, without PMA. The medium was then aspirated, and the cells were washed with PBS and cultivated for next 24 hours in serum-free RPMI 1640 medium. These prepared macrophages were used for the detection of inflammatory response.
In the order to evaluate the expression of TNF-α, IL-1β, and β-actin mRNA, total RNA was isolated directly from the LPS-stimulated THP-1 cells. THP-1 macrophages were pretreated with compounds 2, 5, and Auranofin at the concentration of 300 nM or the vehicle (0.1% DMSO) only. After 1 h of the incubation, the inflammatory response was induced by LPS [except for the control cells (CTRL)]. After 2 h of the incubation with LPS, the medium was aspirated and the total RNA was isolated directly from the cells in cultivation plates using a RealTime Ready Cell Lysis Kit (Roche), according to the manufacturer's instructions.
The gene expression was quantified by two-step reverse-transcription quantitative (real-time) PCR (RT-qPCR). The reverse transcription step was performed by Transcriptor Universal cDNA Master using cell lysate as a template. […] The results were normalized to the amount of ROX reference dye, and the change in gene expression was determined by the 2^−ΔΔCT method. […]

[2] = system: λ-carrageenan-induced hind paw edema; assay: Carrageenan-induced hind paw edema; type: in vivo, Wistar-SPF rats
Method: Wistar-SPF (6–8 weeks male) rats were obtained from AnLab, Ltd. (Prague, Czech Republic). The animals were kept in plexiglass cages at the constant temperature of 22±1°C and relative humidity of 55±5% for at least 1 week before the experiment. They were given food and water ad libitum. All the experimental procedures were performed according to the National Institutes of Health (NIH) Guide for the Care and Use of Laboratory Animals. In addition, all the tests were conducted under the guidelines of the International Association for the Study of Pain [61]. After a one-week adaptation period, male Wistar-SPF rats (200–250 g) were randomly assigned to five groups (n = 7) of the animals in the study. The first, control group, received 25% DMSO (v/v in water, intraperitoneal; i.p.). The next three groups were pretreated with complexes 2, 4 and 5, and involved into the carrageenan-treatment. The fifth group was treated with a non-steroidal anti-inflammatory drug Indomethacin (5 mg/kg), which served as a positive control group (Indomethacin + carrageenan).
The carrageenan-induced hind paw edema model was used for the determination of anti-inflammatory activity. Animals were i.p. pretreated with complexes 2, 4, and 5 (the dosages of the individual complexes were adjusted to contain the same amount of gold as in 10 mg/kg dose of Auranofin), Indomethacin (5 mg/kg), or 25% DMSO (v/v in water) 30 min prior to the injection of 1% λ-carrageenan solution (50 µL) into the plantar side of right hind paws of the rats. The paw volume was measured immediately after the carrageenan injection (this value was set-up as baseline value for the hind paw volume) and during the next 6 h after the administration of the edematogenic agent using a plethysmometer (model 7159, Ugo Basile, Varese, Italy). The degree of swelling was evaluated as a percentage of the change of the volume of the right hind paw after the carrageenan treatment from the baseline volume. A non-steroidal anti-inflammatory drug Indomethacin was used as a positive control and the obtained data were also compared with the previously reported profile of antiedematous activity for Auranofin [38]. After 6 h, the animals were sacrificed and the edematous feet were dissected, the tissue from the plantar parts was extracted, fixed and stained by a standard hematoxylin/eosin (HE) staining for cytological evaluation of polymorphonuclear cells infiltration.
The statistically significant differences between individual groups during anti- inflammatory testing were evaluated using a one-way ANOVA test for statistical analysis, followed by Tukey's post-hoc test for multiple comparisons. GraphPad Prism 5.02 (GraphPad Software Inc., San Diego, CA, USA) was used to perform the analysis. The results are presented as arithmetic means±S.E. values.

[3] = i.p., dose equivalent in gold to 10 mg/kg Auranofin

Row | SMILES | effect on TNF-α mRNA transcription [1] | antiedematous effect compared with Auranofin ([2]; after 180 min, p<0.001, Auranofin profile from ref 38) | overall antiedematous / anti-inflammatory activity [2, 3] | antiedematous activity profile up to 180 min after carrageenan ([2]; i.p., dose equivalent in gold to 10 mg/kg Auranofin, 30 min before carrageenan) | antiedematous activity after 180 min ([2]; i.p., dose equivalent in gold to 10 mg/kg Auranofin, up to 6 h)
1 | CC(C)Oc1ncnc2cc[n]([Au])c12.c1ccc(P(c2ccccc2)c2ccccc2)cc1 [complex 2, [Au(L2)(PPh3)]] | significantly reduce the transcription | even better than that of gold-containing metallodrug Auranofin | significant anti-inflammatory effects | very similar pharmacological profiles of complexes 2 and 4 with the reference drug Indomethacin | elimination of hind paw swelling
2 | [Au][n]1ccc2ncnc(OCCc3ccccc3)c21.c1ccc(P(c2ccccc2)c2ccccc2)cc1 [complex 5] | significantly reduce the transcription | – | inactive | – | –
